pEC50: −log10 of the molar value.
Target: T1, sGC α1/β1 heterodimer (Homo sapiens, UniProt Q02108+Q02153)
T1 construct: expressed in transfected cells; host or cells: CHO-K1 (clone #7, CHO-K1/sGC)
T1 sequence (Q02108 1-690): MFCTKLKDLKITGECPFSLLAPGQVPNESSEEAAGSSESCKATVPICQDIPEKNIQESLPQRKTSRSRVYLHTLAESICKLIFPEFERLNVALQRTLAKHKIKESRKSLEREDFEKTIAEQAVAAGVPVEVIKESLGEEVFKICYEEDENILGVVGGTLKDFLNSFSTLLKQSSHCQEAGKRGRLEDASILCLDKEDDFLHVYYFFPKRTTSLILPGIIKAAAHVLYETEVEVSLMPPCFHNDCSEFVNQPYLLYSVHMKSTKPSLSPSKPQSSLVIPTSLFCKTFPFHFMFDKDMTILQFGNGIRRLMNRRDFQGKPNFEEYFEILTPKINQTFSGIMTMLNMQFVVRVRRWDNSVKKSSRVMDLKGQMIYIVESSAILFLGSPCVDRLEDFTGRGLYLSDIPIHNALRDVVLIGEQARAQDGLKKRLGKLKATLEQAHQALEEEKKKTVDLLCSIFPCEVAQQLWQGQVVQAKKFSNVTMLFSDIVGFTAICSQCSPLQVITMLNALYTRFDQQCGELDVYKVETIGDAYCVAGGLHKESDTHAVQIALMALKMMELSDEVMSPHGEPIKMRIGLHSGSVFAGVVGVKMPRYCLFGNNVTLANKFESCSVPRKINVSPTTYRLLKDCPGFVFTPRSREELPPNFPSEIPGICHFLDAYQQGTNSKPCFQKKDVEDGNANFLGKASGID
T1 sequence (Q02153 1-619): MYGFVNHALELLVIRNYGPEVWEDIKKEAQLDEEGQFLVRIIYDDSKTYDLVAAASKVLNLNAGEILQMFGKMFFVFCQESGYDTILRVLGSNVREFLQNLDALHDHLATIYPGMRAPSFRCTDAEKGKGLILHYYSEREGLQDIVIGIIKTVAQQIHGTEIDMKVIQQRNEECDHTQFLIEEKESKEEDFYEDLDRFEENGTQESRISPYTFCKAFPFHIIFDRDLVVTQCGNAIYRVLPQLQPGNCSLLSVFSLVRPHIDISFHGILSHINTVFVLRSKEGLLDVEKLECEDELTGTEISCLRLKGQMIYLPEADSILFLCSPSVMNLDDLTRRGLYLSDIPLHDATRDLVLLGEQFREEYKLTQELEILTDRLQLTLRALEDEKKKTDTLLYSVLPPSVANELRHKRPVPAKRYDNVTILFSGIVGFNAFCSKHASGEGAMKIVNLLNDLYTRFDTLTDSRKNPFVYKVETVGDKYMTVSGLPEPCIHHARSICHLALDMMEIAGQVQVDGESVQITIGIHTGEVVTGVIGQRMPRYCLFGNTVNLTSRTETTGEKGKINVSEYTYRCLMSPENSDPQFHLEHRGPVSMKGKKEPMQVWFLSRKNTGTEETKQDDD
Experiment: Cell-based sGC functional assay (CASA assay): cGMP generation in CHO-K1/sGC cells, HTRF detection
Settings: for Emax: CHO-K1, percent activation relative to standard Compound A in CHO-K1/sGC cells, read-out: % Act.; for pEC50: inflection point (IP) of cGMP generation in CHO-K1/sGC cells, 4P fit, activity expressed as percentage of Compound A
Summary of the method: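 Stable CHO-K1/sGC cells in EBSS buffer with 5 mM MgCl2, 0.05% BSA and 0.5 mM IBMX were incubated with compound (2.5% DMSO final) ±1 μM DETA-NO for 1 hr at 37° C. cGMP was measured by HTRF. Activation is expressed as % of reference HDA Compound A maximum, with IP and max fold induction from a 4P fit.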

Structure (SMILES) | Emax [%] | pEC50
CC1(c2ccc(F)cc2)C(=O)Nc2nc(-c3cn4ccnc4c(CCc4ccccc4F)n3)nc(N)c21 (centres unmarked) [Example 3A, 4-amino-2-(8-(2-fluorophenethyl)imidazo[1,2-a]pyrazin-6-yl)-5-(4-fluorophenyl)-5-methyl-5H-pyrrolo[2,3-d]pyrimidin-6(7H)-one] | 139 | 7.72
CC1(c2ccc(F)cc2)C(=O)Nc2nc(-c3cn4ccnc4c(CCc4cccc(F)c4)n3)nc(N)c21 (centres unmarked) [Example 4A, 4-amino-2-(8-(3-fluorophenethyl)imidazo[1,2-a]pyrazin-6-yl)-5-(4-fluorophenyl)-5-methyl-5H-pyrrolo[2,3-d]pyrimidin-6(7H)-one] | 123 | 7.49
CC1(c2ccc(F)cc2)C(=O)Nc2nc(-c3cn4ccnc4c(CCCc4ccccc4)n3)nc(N)c21 (centres unmarked) [Example 5A] | 109 | 6.07
CC1(c2ccc(F)cc2)C(=O)Nc2nc(-c3cn4ccnc4c(-c4ccc(C5CC5)cc4)n3)nc(N)c21 (centres unmarked) [Example 6A, 4-amino-2-(8-(4-cyclopropylphenyl)imidazo[1,2-a]pyrazin-6-yl)-5-(4-fluorophenyl)-5-methyl-5H-pyrrolo[2,3-d]pyrimidin-6(7H)-one] | 115 | 6.25
COc1ccc(-c2nc(-c3nc(N)c4c(n3)NC(=O)C4(C)c3ccc(F)cc3)cn3ccnc23)cc1 (centres unmarked) [Example 7A, 4-amino-5-(4-fluorophenyl)-2-(8-(4-methoxyphenyl)imidazo[1,2-a]pyrazin-6-yl)-5-methyl-5H-pyrrolo[2,3-d]pyrimidin-6(7H)-one] | 63 | 6.23
CCC(CC)Cc1nc(-c2nc(N)c3c(n2)NC(=O)C3(C)c2ccc(Cl)cc2)cn2ccnc12 (centres unmarked) [Example 9A, 4-amino-5-(4-chlorophenyl)-2-(8-(2-ethylbutyl)imidazo[1,2-a]pyrazin-6-yl)-5-methyl-5H-pyrrolo[2,3-d]pyrimidin-6(7H)-one] | 134 | 7.22
CC1(c2ccc(F)cc2)C(=O)Nc2nc(-c3cn4ccnc4c(CCC4CCCCC4)n3)nc(N)c21 (centres unmarked) [Example 12A, 4-amino-2-(8-(2-cyclohexylethyl)imidazo[1,2-a]pyrazin-6-yl)-5-(4-fluorophenyl)-5-methyl-5H-pyrrolo[2,3-d]pyrimidin-6(7H)-one] | 142 | 7.28
CCC(CC)Cc1nc(-c2nc(N)c3c(n2)NC(=O)C3(C)c2ccc(F)cc2)cn2ccnc12 (centres unmarked) [Example 13A, 4-amino-2-(8-(2-ethylbutyl)imidazo[1,2-a]pyrazin-6-yl)-5-(4-fluorophenyl)-5-methyl-5H-pyrrolo[2,3-d]pyrimidin-6(7H)-one] | 114 | 7.38
CCCc1nc(-c2nc(N)c3c(n2)NC(=O)C3(C)c2ccc(F)cc2)cn2ccnc12 (centres unmarked) [Example 17A, 4-amino-5-(4-fluorophenyl)-5-methyl-2-(8-propylimidazo[1,2-a]pyrazin-6-yl)-5H-pyrrolo[2,3-d]pyrimidin-6(7H)-one] | 124 | 6.80
CCC(CC)Cc1nc(-c2nc(N)c3c(n2)NC(=O)C3(C)c2ccc(F)cn2)cn2ccnc12 (centres unmarked) [Example 18B, 4-amino-2-(8-(2-ethylbutyl)imidazo[1,2-a]pyrazin-6-yl)-5-(5-fluoropyridin-2-yl)-5-methyl-5H-pyrrolo[2,3-d]pyrimidin-6(7H)-one] | 106 | 6.84

Second part, the molecule after the results:

Emax [%] | pEC50 | Structure (SMILES)
87 | 6.82 | CC(F)(F)c1ccc(C2(C)C(=O)Nc3nc(-c4cn5ccnc5c(CCC(F)(F)C(F)(F)F)n4)nc(N)c32)cn1 (single isomer, unassigned) [Example 379A, 4-amino-5-(6-(1,1-difluoroethyl)pyridin-3-yl)-5-methyl-2-(8-(3,3,4,4,4-pentafluorobutyl)imidazo[1,2-a]pyrazin-6-yl)-5H-pyrrolo[2,3-d]pyrimidin-6(7H)-one]
181 | 7.46 | CC(F)(F)c1ccc(C2(C)C(=O)Nc3nc(-c4cn5ccnc5c(CCCC(F)(F)F)n4)nc(N)c32)cn1 (single isomer, unassigned) [Example 380B, 4-amino-5-(6-(1,1-difluoroethyl)pyridin-3-yl)-5-methyl-2-(8-(4,4,4-trifluorobutyl)imidazo[1,2-a]pyrazin-6-yl)-5H-pyrrolo[2,3-d]pyrimidin-6(7H)-one]
113 | 6.41 | CC(C)Cc1nc(-c2nc(N)c3c(n2)NC(=O)C3(C)c2ccc(F)cc2)cn2ccnc12 (centres unmarked) [Example 19A, 4-amino-5-(4-fluorophenyl)-2-(8-isobutylimidazo[1,2-a]pyrazin-6-yl)-5-methyl-5H-pyrrolo[2,3-d]pyrimidin-6(7H)-one]
95 | 6.71 | CC1(c2ccc(F)cc2)C(=O)Nc2nc(-c3cn4ccnc4c(C4CCC4)n3)nc(N)c21 (centres unmarked) [Example 21A, 4-amino-2-(8-cyclobutylimidazo[1,2-a]pyrazin-6-yl)-5-(4-fluorophenyl)-5-methyl-5H-pyrrolo[2,3-d]pyrimidin-6(7H)-one]
91 | 6.82 | CC(C)Cc1nc(-c2nc(N)c3c(n2)NC(=O)C3(c2ccc(Cl)cc2)C2CC2)cn2ccnc12 (centres unmarked) [Example 22B, 4-amino-5-(4-chlorophenyl)-5-cyclopropyl-2-(8-isobutylimidazo[1,2-a]pyrazin-6-yl)-5H-pyrrolo[2,3-d]pyrimidin-6(7H)-one]
96 | 6.59 | CC(C)Cc1nc(-c2nc(N)c3c(n2)NC(=O)C3(C)c2ccc(F)cn2)cn2ccnc12 (centres unmarked) [Example 23B, 4-amino-5-(5-fluoropyridin-2-yl)-2-(8-isobutylimidazo[1,2-a]pyrazin-6-yl)-5-methyl-5H-pyrrolo[2,3-d]pyrimidin-6(7H)-one]
104 | 6.39 | CCCc1nc(-c2nc(N)c3c(n2)NC(=O)C3(C)c2ccc(OC(F)(F)F)cc2)cn2ccnc12 (centres unmarked) [Example 24A, 4-amino-5-methyl-2-(8-propylimidazo[1,2-a]pyrazin-6-yl)-5-(4-(trifluoromethoxy)phenyl)-5H-pyrrolo[2,3-d]pyrimidin-6(7H)-one]
87 | 6.49 | CC(C)Cc1nc(-c2nc(N)c3c(n2)NC(=O)C3(C)c2ccc(OC(F)(F)F)cc2)cn2ccnc12 (centres unmarked) [Example 25A, 4-amino-2-(8-isobutylimidazo[1,2-a]pyrazin-6-yl)-5-methyl-5-(4-(trifluoromethoxy)phenyl)-5H-pyrrolo[2,3-d]pyrimidin-6(7H)-one]
85 | 6.36 | CC1(c2ccc(F)cn2)C(=O)Nc2nc(-c3cn4ccnc4c(C4CCC4)n3)nc(N)c21 (centres unmarked) [Example 27B, 4-amino-2-(8-cyclobutylimidazo[1,2-a]pyrazin-6-yl)-5-(5-fluoropyridin-2-yl)-5-methyl-5H-pyrrolo[2,3-d]pyrimidin-6(7H)-one]
82 | 6.19 | CC1(c2ccc(F)cc2)C(=O)Nc2nc(-c3cn4ccnc4c(C4CC4)n3)nc(N)c21 (centres unmarked) [Example 28A, 4-amino-2-(8-cyclopropylimidazo[1,2-a]pyrazin-6-yl)-5-(4-fluorophenyl)-5-methyl-5H-pyrrolo[2,3-d]pyrimidin-6(7H)-one]
129 | 7.80 | CC1(C(=O)NC2CC2)C(=O)Nc2nc(-c3cn4ccnc4c(Cc4ccccc4F)n3)nc(N)c21 (centres unmarked) [Example 35A, 4-amino-N-cyclopropyl-2-(8-(2-fluorobenzyl)imidazo[1,2-a]pyrazin-6-yl)-5-methyl-6-oxo-6,7-dihydro-5H-pyrrolo[2,3-d]pyrimidine-5-carboxamide]
103 | 7.49 | NC(=O)C1(C2CC2)C(=O)Nc2nc(-c3cn4ccnc4c(Cc4cccc(F)c4)n3)nc(N)c21 (centres unmarked) [Example 42B, 4-amino-5-cyclopropyl-2-(8-(3-fluorobenzyl)imidazo[1,2-a]pyrazin-6-yl)-6-oxo-6,7-dihydro-5H-pyrrolo[2,3-d]pyrimidine-5-carboxamide]

From US9796733B2, “Imidazo-pyrazine derivatives useful as soluble guanylate cyclase activators” (Merck Sharp & Dohme Corp., priority 2014, dated 2017)
